{
  "source": "patent US20080241260A1",
  "about": "“Compositions for Enhanced Absorption of Biologically Active Agents” (priority 2005, published 2008)",
  "test_system": "streptozotocin-induced diabetic rats",
  "experiment": "Effect of formulations on serum glucose level in diabetic rat model",
  "format": "in vivo, male albino Wistar rats",
  "settings": "S.C., 1 u/kg",
  "data": [
    {"substance": "Insulin solution: Insulin solution, pH 3, given subcutaneously at 1 u/kg as reference", "values": [
      {"measurement": "% Decrease in serum glucose level After 1 hr", "setting": "1 hr", "value": "76.62 ± 1.08", "unit": "%"},
      {"measurement": "% Decrease in serum glucose level After 2 hr", "setting": "2 hr", "value": "83.26 ± 2.56", "unit": "%"},
      {"measurement": "% Decrease in serum glucose level After 3 hr", "setting": "3 hr", "value": "66.75 ± 5.39", "unit": "%"},
      {"measurement": "% Decrease in serum glucose level After 5 hr", "setting": "5 hr", "value": "38.26 ± 3.60", "unit": "%"}
    ]}
  ]
}
